Source: US20230293407A1, “Compositions Comprising (Bio)-Alkanediols with Antimicrobials for Product Protection” (Symrise AG, priority 2020, published 2023)

Assays:
Assay in all cases: preservation efficacy test (PET), European Pharmacopoeia 5.1.3
Assay type in all cases: cell-based
Staphylococcus aureus = details: for germ count SA, 2 days / germ count SA, 7 days / germ count SA, 14 days / germ count SA, 28 days: o/w emulsion (Table 53); for count at 2 days / count at 7 days / count at 14 days / count at 28 days: SA, use concentration in label
Pseudomonas aeruginosa = details: for germ count PA, 2 days / germ count PA, 7 days / germ count PA, 14 days / germ count PA, 28 days: o/w emulsion (Table 53)
Escherichia coli = details: for germ count EC, 2 days / germ count EC, 7 days / germ count EC, 14 days / germ count EC, 28 days: o/w emulsion (Table 53)
Candida albicans = test system: Candida albicans
[1] = 28 days after inoculation, o/w emulsion (Table 53)
[2] = in wet wipes, 2 days after inoculation
[3] = in wet wipes, 7 days after inoculation
[4] = in wet wipes, 14 days after inoculation
[5] = in wet wipes, 28 days after inoculation
[6] = 2 days after inoculation, substance at given % in test formulation
[7] = 7 days after inoculation, substance at given % in test formulation
[8] = 14 days after inoculation, substance at given % in test formulation
[9] = 28 days after inoculation, substance at given % in test formulation
[10] = PA, 28 days after inoculation, use concentration in label
[11] = EC, 7 days after inoculation, use concentration in label
[12] = EC, 14 days after inoculation, use concentration in label
[13] = EC, 28 days after inoculation, use concentration in label

## CCCCC(CC)COCC(O)CO (stereo not shown) [Ethylhexlglycerin, Ethylhexylglycerin, reference compound]
Staphylococcus aureus; 2 days after inoculation
  germ count SA, 2 days: 240.000
Staphylococcus aureus; 7 days after inoculation
  germ count SA, 7 days: 36
Staphylococcus aureus; 14 days after inoculation
  germ count SA, 14 days: 1
Staphylococcus aureus; 28 days after inoculation
  germ count SA, 28 days: 1
Staphylococcus aureus; PET, Staphylococcus aureus (SA), 2 days after inoculation
  number of microorganisms, 2 days: 240.000
Staphylococcus aureus; PET, Staphylococcus aureus (SA), 7 days after inoculation
  number of microorganisms, 7 days: 36
Staphylococcus aureus; PET, Staphylococcus aureus (SA), 14 days after inoculation
  number of microorganisms, 14 days: 1
Staphylococcus aureus; PET, Staphylococcus aureus (SA), 28 days after inoculation
  number of microorganisms, 28 days: 1
Pseudomonas aeruginosa; 2 days after inoculation
  germ count PA, 2 days: 1
Pseudomonas aeruginosa; 7 days after inoculation
  germ count PA, 7 days: 1
Pseudomonas aeruginosa; 14 days after inoculation
  germ count PA, 14 days: 1
Pseudomonas aeruginosa; 28 days after inoculation
  germ count PA, 28 days: 1
Pseudomonas aeruginosa; PET, Pseudomonas aeruginosa (PA), 2 days after inoculation
  number of microorganisms, 2 days: 1
Pseudomonas aeruginosa; PET, Pseudomonas aeruginosa (PA), 7 days after inoculation
  number of microorganisms, 7 days: 1
Pseudomonas aeruginosa; PET, Pseudomonas aeruginosa (PA), 14 days after inoculation
  number of microorganisms, 14 days: 1
Pseudomonas aeruginosa; PET, Pseudomonas aeruginosa (PA), 28 days after inoculation
  number of microorganisms, 28 days: 1
Escherichia coli; 2 days after inoculation
  germ count EC, 2 days: 10.000
Escherichia coli; 7 days after inoculation
  germ count EC, 7 days: 82
Escherichia coli; 14 days after inoculation
  germ count EC, 14 days: 1
Escherichia coli; 28 days after inoculation
  germ count EC, 28 days: 1
Escherichia coli; PET, Escherichia coli (EC), 2 days after inoculation
  number of microorganisms, 2 days: 10.000
Escherichia coli; PET, Escherichia coli (EC), 7 days after inoculation
  number of microorganisms, 7 days: 82
Escherichia coli; PET, Escherichia coli (EC), 14 days after inoculation
  number of microorganisms, 14 days: 1
Escherichia coli; PET, Escherichia coli (EC), 28 days after inoculation
  number of microorganisms, 28 days: 1
Candida albicans; [1]
  germ count CA, 28 days: 950.000
Candida albicans; PET, Candida albicans (CA), 28 days after inoculation
  number of microorganisms, 28 days: 950.000

## CCCCCC(O)C(C)O (stereo not shown) [0.1% 2,3-octanediol]
Staphylococcus aureus; [2]
  SA germ count, 2 days: 50
Staphylococcus aureus; [3]
  SA germ count, 7 days: 50
Staphylococcus aureus; [4]
  SA germ count, 14 days: 50
Staphylococcus aureus; [5]
  SA germ count, 28 days: 50
Pseudomonas aeruginosa; [3]
  PA germ count, 7 days: 630.000
Pseudomonas aeruginosa; [4]
  PA germ count, 14 days: 310.000
Pseudomonas aeruginosa; [5]
  PA germ count, 28 days: 27.000
Escherichia coli; [4]
  EC germ count, 14 days: 850.000
Escherichia coli; [5]
  EC germ count, 28 days: 1.600

## CCCCCCCC(=O)OCC(O)CO (stereo not shown) [0.2% glyceryl caprylate]
Staphylococcus aureus; [6]
  SA germ count, 2 days: 1
Staphylococcus aureus; [7]
  SA germ count, 7 days: 1
Staphylococcus aureus; [8]
  SA germ count, 14 days: 1
Staphylococcus aureus; [9]
  SA germ count, 28 days: 1
Pseudomonas aeruginosa; [6]
  PA germ count, 2 days: 1
Pseudomonas aeruginosa; [7]
  PA germ count, 7 days: 1
Pseudomonas aeruginosa; [8]
  PA germ count, 14 days: 1
Pseudomonas aeruginosa; [9]
  PA germ count, 28 days: 1
Escherichia coli; [6]
  EC germ count, 2 days: 1
Escherichia coli; [7]
  EC germ count, 7 days: 1
Escherichia coli; [8]
  EC germ count, 14 days: 1
Escherichia coli; [9]
  EC germ count, 28 days: 1
Candida albicans; [6]
  CA germ count, 2 days: 12.000
Candida albicans; [7]
  CA germ count, 7 days: 260
Candida albicans; [8]
  CA germ count, 14 days: 1
Candida albicans; [9]
  CA germ count, 28 days: 1

## CCCCCCC(O)C(C)O (stereo not shown) [0.2% 2,3 Nonanediol]
Staphylococcus aureus; 2 days after inoculation
  germ count SA, 2 days: 880
Staphylococcus aureus; 7 days after inoculation
  germ count SA, 7 days: 1
Staphylococcus aureus; 14 days after inoculation
  germ count SA, 14 days: 1
Staphylococcus aureus; 28 days after inoculation
  germ count SA, 28 days: 1
Pseudomonas aeruginosa; 2 days after inoculation
  germ count PA, 2 days: 1
Pseudomonas aeruginosa; 7 days after inoculation
  germ count PA, 7 days: 1
Pseudomonas aeruginosa; 14 days after inoculation
  germ count PA, 14 days: 1
Pseudomonas aeruginosa; 28 days after inoculation
  germ count PA, 28 days: 1
Escherichia coli; 2 days after inoculation
  germ count EC, 2 days: 860.000
Escherichia coli; 7 days after inoculation
  germ count EC, 7 days: 230.000
Escherichia coli; 14 days after inoculation
  germ count EC, 14 days: 760
Escherichia coli; 28 days after inoculation
  germ count EC, 28 days: 1
Candida albicans; 7 days after inoculation, o/w emulsion (Table 53)
  germ count CA, 7 days: 440.000
Candida albicans; 14 days after inoculation, o/w emulsion (Table 53)
  germ count CA, 14 days: 160.000
Candida albicans; [1]
  germ count CA, 28 days: 3.800

## CC(C)=CCC/C(C)=C/CC/C(C)=C/CO [0.3% farnesol]
Staphylococcus aureus; 2 days after inoculation
  count at 2 days: 720.000
Staphylococcus aureus; 7 days after inoculation
  count at 7 days: 52.000
Staphylococcus aureus; 14 days after inoculation
  count at 14 days: 100.000
Staphylococcus aureus; 28 days after inoculation
  count at 28 days: 33.000
Pseudomonas aeruginosa; PA, 2 days after inoculation, use concentration in label
  count at 2 days: 460.000
Pseudomonas aeruginosa; PA, 7 days after inoculation, use concentration in label
  count at 7 days: 380.000
Pseudomonas aeruginosa; PA, 14 days after inoculation, use concentration in label
  count at 14 days: 610.000
Pseudomonas aeruginosa; [10]
  count at 28 days: 65.000
Escherichia coli; [11]
  count at 7 days: 390.000
Escherichia coli; [12]
  count at 14 days: 12.000
Escherichia coli; [13]
  count at 28 days: 1.000
Candida albicans; CA, 7 days after inoculation, use concentration in label
  count at 7 days: 880.000

## CCCCCCC(O)CO (stereo not shown) [0.1% 1,2-octanediol]
Staphylococcus aureus; [2]
  SA germ count, 2 days: 425
Staphylococcus aureus; [3]
  SA germ count, 7 days: 50
Staphylococcus aureus; [4]
  SA germ count, 14 days: 50
Staphylococcus aureus; [5]
  SA germ count, 28 days: 50
Pseudomonas aeruginosa; [4]
  PA germ count, 14 days: 750.000
Pseudomonas aeruginosa; [5]
  PA germ count, 28 days: 350.000
Escherichia coli; [5]
  EC germ count, 28 days: 2.300

## CC(C)(C)C(=O)C(Oc1ccc(Cl)cc1)n1ccnc1 (stereo not shown) [0.4% Climbazole]
Staphylococcus aureus; 2 days after inoculation
  count at 2 days: 340.000
Staphylococcus aureus; 7 days after inoculation
  count at 7 days: 1
Staphylococcus aureus; 14 days after inoculation
  count at 14 days: 1
Staphylococcus aureus; 28 days after inoculation
  count at 28 days: 1
Pseudomonas aeruginosa; [10]
  count at 28 days: 940.000
Escherichia coli; EC, 2 days after inoculation, use concentration in label
  count at 2 days: 940.000
Escherichia coli; [11]
  count at 7 days: 810.000
Escherichia coli; [12]
  count at 14 days: 690
Escherichia coli; [13]
  count at 28 days: 1
Candida albicans; CA, 14 days after inoculation, use concentration in label
  count at 14 days: 760.000
Candida albicans; CA, 28 days after inoculation, use concentration in label
  count at 28 days: 72.000

## CCCCCC(O)CO (stereo not shown) [0.2% 1.2-heptanediol]
Staphylococcus aureus; [6]
  SA germ count, 2 days: 12.000
Staphylococcus aureus; [7]
  SA germ count, 7 days: 1
Escherichia coli; [6]
  EC germ count, 2 days: 780.000
Escherichia coli; [7]
  EC germ count, 7 days: 83.000
Escherichia coli; [8]
  EC germ count, 14 days: 11.000
Escherichia coli; [9]
  EC germ count, 28 days: 180
Candida albicans; [9]
  CA germ count, 28 days: 310.000
